Measured values taken from patent EP0955376A1, “ANTIBIOTIC TKR 459, PRODUCTION METHOD, AND MICROORGANISM” (Takara Shuzo Co, Ltd., priority 1996, dated 1998).
Converted amounts (≈) assume the structure as drawn. Read-outs that look alike come from different tables or passages of the source.

Legend:
Solubility in solvents = type: physicochemical
[1] = tested on: Cryptococcus neoformans TIMM0354; assay: Antimicrobial spectrum, liquid medium dilution method; type: cell-based; conditions: medium YNBG, minimal concentration causing substantially complete inhibition of growth, read-out: Minimal inhibitory concentration
Description: (§1) The TKR459 obtained was used to determine antimicrobial spectra against various microorganisms. The minimal inhibitory concentration (µg/ml) was measured by the liquid medium dilution method as the minimal concentration causing a substantially complete inhibition of micobial growth. The sub-minimal inhibitory concentration (µg/ml) was determined as the minimal concentration causing a partial inhibition of micobial growth and shown in the parentheses of Table 2. In the table, YNBG stands for a medium comprising 0.67% of yeast nitrogen base (manufactured by Difco) and 1.0% of glucose.

[2] = tested on: Candida albicans TIMM0136; assay: as above; type: cell-based; conditions: medium YNBG, minimal concentration causing substantially complete inhibition of growth, read-out: Minimal inhibitory concentration
Description: as §1

Candida kefyr TIMM0301 = assay: as above; type: cell-based; conditions: Kluyveromyces marxianus, medium YNBG
Description: as §1

ICR mice = assay: Toxicity after intraperitoneal administration to mice; type: in vivo; conditions: dose 100 mg/kg

In the case of CC1(CCC(=O)O)CCCCCCCCCCCCCC(O)C(O)C(O)C(N)C(O)O1 (stereo not drawn) [TKR459], the solubility (Solubility in solvents; in chloroform) is reported as “sparingly soluble”, the solubility (Solubility in solvents; in hexane) is reported as “sparingly soluble” and the solubility (Solubility in solvents; in methanol) is reported as “soluble”. The solubility (Solubility in solvents; in water) was “soluble”, the MIC [1] was 3.13 µg/mL (≈ 6.99 µM) and the MIC [2] was 0.78 µg/mL (≈ 1.74 µM). For the same compound, the MIC (Candida kefyr TIMM0301; minimal concentration causing substantially complete inhibition of growth, read-out: Minimal inhibitory concentration) was 0.78 µg/mL (≈ 1.74 µM), the MIC (Candida kefyr TIMM0301; value in parentheses, minimal concentration causing partial inhibition of growth, read-out: sub-minimal inhibitory concentration) was 0.39 µg/mL (≈ 0.871 µM) and the toxic signs (ICR mice) was “no toxic signs”.
